Counter-ions that a name gives are not always drawn.
Legend:
AH60C cells = experiment: Number of tumor nodules on the liver surface in the AH60C hepatic metastasis model in rats; assay type: in vivo, Male Donryu rats; AH60C cells derived from rat hepatoma; settings: 5 mg/kg i.v. an hour before surgical invasion (laparothoractomy); 5×10^5 AH60C cells via portal vein; 3 weeks later; Group C (not treated) 27.2±30.0; p<0.01 (Mann-Whitney U)
Method: (§1) Using a model of hepatic metastasis of tumor, an experiment was conducted to determine a correlation of hepatic metastasis of tumor with a level of liver lipid peroxide (LPO). In addition, an experiment was effected on the Present Compound in terms of its suppressory effect of liver lipid peroxide (LPO) and suppressory effect on hepatic metastasis of tumor.
(§2) Male Donryu rats (ca. 10-weeks aged) were employed as an experimental animal, while AH60C cells (derived from rat hepatoma) were used as a tumor cell. The rats were divided into three groups, namely a laparothoractomy group (Group LT) undergoing intratracheal intubation, followed by thoraco-laparotomy for one hour, a laparotomy group (Group L) undergoing only laparotomy for one hour and a control group (Group C) undergoing laparotomy, followed by immediate closure of the abdomen. The rats were subjected to laparotomy under anesthesia with ether and Ketalar and given 5×10^5 of AH60C cells through the portal vein to inflict surgical invasion, followed by laparotomy three weeks later to determine the number of tumor nodules on the liver surface. In addition to this, the serum samples were drawn, while the liver and lung tissues were isolated, on Disease Days 1. 2 and 3 to determine their respective levels of lipid peroxide by the TBA method. […]

[1] = Acute toxicity (LD50) in rats; settings: rat, in vivo
[2] = test system: liver lipid peroxide (LPO); experiment: Level of liver lipid peroxide (LPO, TBA method) after surgical invasion (laparothoractomy) in rats; assay type: in vivo, Male Donryu rats; settings: 5 mg/kg i.v. an hour before surgical invasion (laparothoractomy); 24 hours later; elevation significantly suppressed, p<0.05 (Mann-Whitney U)
Method: as §1, §2

## Cc1c(C)c2c(c(C)c1OP(=O)(O)OC1=C(O)[C@@H]([C@@H](O)CO)OC1=O)CCC(C)(CCCC(C)CCCC(C)CCCC(C)C)O2 (mixture of isomers) [EPC-K, potassium salt of a phosphoric acid diester of L-ascorbic acid and DL-α-tocopherol]
AH60C cells
  number of tumor nodules on the liver surface: 8.9±12.7
[1]; iv
  LD50: ≥ 100 mg/kg
[1]; po
  LD50: 5000 mg/kg
[2]
  level of liver lipid peroxide (LPO): 18.9 ± 17.9 nmol/g

— patent US5552389A, “Suppressory compositions against hepatic metastases of tumors” (Senju Pharmaceutical Co., Ltd., priority 1994, dated 1996)
